The values that follow come from US11505558B1, “Antiviral heterocyclic compounds” (Enanta Pharmaceuticals, Inc., priority 2019, dated 2022).

pEC50: −log10 of the molar value.

This assay has as its system genotype A, "Long" strain RSV. The assay can be described thus: RSV-A assay (CPE, ATPlite readout in Hep-2 cells). The format is cell-based. The settings on record: human respiratory syncytial virus, HEp-2, Hep-2 cells, genotype A "Long" strain RSV, MOI 0.1; read-out: Human RSV-A (“Long” strain) EC50. In a few lines: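 Protection from RSV-induced cytopathic effect, measured as ATPlite luminescence after 5 days, gave EC50 values. Assay used genotype A Long strain at MOI 0.1 on Hep-2 cells seeded at 8,000/well in DMEM growth media with 10% FBS; compounds tested as 2-fold dilutions in duplicate.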
For `C[C@@H](O)COc1ccc(C(=O)NC[C@](O)(c2cc3c(c(-c4ccc(F)cc4)n2)OC[C@]3(C)C(N)=O)C(F)(F)F)cc1-c1cncnc1` [Example 203], the pEC50 was less than 6.70.

Consider `C[C@@H](O)COc1ccc(C(=O)NC[C@](O)(c2cc3c(c(-c4ccc(F)cc4)n2)OC[C@]3(C)C(N)=O)C(F)(F)F)cc1-c1cccnc1` [Example 204], for which the pEC50 is less than 6.70.

Regarding `C[C@]1(C(N)=O)COc2c1cc([C@@](O)(CNC(=O)c1cc(Cl)c3ncccc3c1)C(F)(F)F)nc2-c1ccc(F)c(Cl)c1` [Example 220], the pEC50 was more than 6.70.

In the case of `COc1cc(C(=O)NC[C@](O)(c2cc3c(c(-c4ccc(F)cc4)n2)OC[C@]3(C)C(N)=O)C(F)(F)F)cc2ccc(C(F)(F)F)nc12` [Example 224], the pEC50 is less than 6.70.

Turning to `C[C@]1(C(N)=O)COc2c1cc([C@@](O)(CNC(=O)c1cc(OC3CC3)c3nc(C(F)(F)F)ccc3c1)C(F)(F)F)nc2-c1ccc(F)cc1` [Example 225], the pEC50 was less than 6.70.

`Cc1ccc2cc(C(=O)NC[C@](O)(c3cc4c(c(-c5ccc(F)cc5)n3)OC[C@]4(C)C(N)=O)C(F)(F)F)cc(O)c2n1` [Example 226]: the pEC50 is more than 6.70.

As to `C[C@]1(C(N)=O)COc2c1cc([C@@](O)(CNC(=O)c1cc(O)c3nc(C(F)(F)F)ccc3c1)C(F)(F)F)nc2-c1ccc(F)cc1` [Example 227], the pEC50 is less than 6.70.

For `C[C@]1(C(N)=O)COc2c1cc([C@@](O)(CNC(=O)c1cc(O)c3ncccc3c1)C(F)(F)F)nc2-c1ccc(F)cc1` [Example 229], the pEC50 is less than 6.70.

Consider `Cc1nnc2ccc(C(=O)NC[C@](O)(c3cc4c(c(-c5ccc(F)cc5)n3)OC[C@]4(C)C(N)=O)C(F)(F)F)cc2c1C` [Example 231], for which the pEC50 was less than 6.70.

With `C[C@]1(C(N)=O)COc2c1cc([C@@](O)(CNC(=O)c1ccc3cccnc3c1)C(F)(F)F)nc2-c1ccc(F)cc1` [Example 233], the negative-log EC50 (pEC50) was less than 6.70.

`C[C@]1(C(N)=O)COc2c1cc([C@@](O)(CNC(=O)c1ccc3nccnc3c1)C(F)(F)F)nc2-c1ccc(F)cc1` [Example 234]: the pEC50 is less than 6.70.

As to `C[C@]1(C(N)=O)COc2c1cc([C@@](O)(CNC(=O)c1cc3ccccc3cn1)C(F)(F)F)nc2-c1ccc(F)cc1` [Example 236], the pEC50 is less than 6.70.

`C[C@]1(C(N)=O)COc2c1cc([C@@](O)(CNC(=O)c1cnc3ccccc3n1)C(F)(F)F)nc2-c1ccc(F)cc1` [Example 237]: the pEC50 was less than 6.70.

On to `C[C@]1(C(N)=O)COc2c1cc([C@@](O)(CNC(=O)c1ccc3ncccc3n1)C(F)(F)F)nc2-c1ccc(F)cc1` [Example 238], for which the pEC50 is less than 6.70.

With `C[C@]1(C(N)=O)COc2c1cc([C@@](O)(CNC(=O)c1cnc3ncccc3c1)C(F)(F)F)nc2-c1ccc(F)cc1` [Example 239], the pEC50 was more than 6.70.

Consider `C[C@]1(C(N)=O)COc2c1cc([C@@](O)(CNC(=O)c1ccc3ncccc3c1Cl)C(F)(F)F)nc2-c1ccc(F)cc1` [Example 240], for which the pEC50 is less than 6.70.

Turning to `C[C@]1(C(N)=O)COc2c1cc([C@@](O)(CNC(=O)c1cc3cccnc3cc1Cl)C(F)(F)F)nc2-c1ccc(F)cc1` [Example 241], the pEC50 was less than 6.70.

For `C[C@]1(C(N)=O)COc2c1cc([C@@](O)(CNC(=O)c1cnc3cccnc3c1)C(F)(F)F)nc2-c1ccc(F)cc1` [Example 242], the pEC50 was less than 6.70.

Take `C[C@]1(C(N)=O)COc2c1cc([C@@](O)(CNC(=O)c1ccc3ccccc3n1)C(F)(F)F)nc2-c1ccc(F)cc1` [Example 243]: the negative logarithm of the EC50 (pEC50) is less than 6.70.

On to `C[C@]1(C(N)=O)COc2c1cc([C@@](O)(CNC(=O)c1cnc3cnccc3c1)C(F)(F)F)nc2-c1ccc(F)cc1` [Example 244], for which the pEC50 was less than 6.70.

Consider `C[C@]1(C(N)=O)COc2c1cc([C@@](O)(CNC(=O)c1ccc3c(Cl)nccc3c1)C(F)(F)F)nc2-c1ccc(F)cc1` [Example 247], for which the pEC50 is more than 6.70.

As for `C[C@]1(C(N)=O)COc2c1cc([C@@](O)(CNC(=O)c1ccc3ncncc3c1)C(F)(F)F)nc2-c1ccc(F)cc1` [Example 248], the pEC50 is more than 6.70.

Take `COc1cc(C(=O)NC[C@](O)(c2cc3c(c(-c4ccc(F)cc4)n2)OC[C@]3(C)C(N)=O)C2CC2)cc2cccnc12` [Example 249]: the pEC50 is more than 6.70.

`Cc1ccnc2c(O)cc(C(=O)NC[C@](O)(c3cc4c(c(-c5ccc(F)cc5)n3)OC[C@]4(C)C(N)=O)C(F)(F)F)cc12` [Example 250]: the pEC50 was less than 6.70.

Turning to `COc1cc(C(=O)NC[C@](O)(c2cc3c(c(-c4ccc(F)cc4)n2)OC[C@]3(C)C(N)=O)C(F)(F)F)cc2c(C)ccnc12` [Example 251], the negative logarithm of the EC50 (pEC50) was less than 6.70.

For `Cc1cnc2c(O)cc(C(=O)NC[C@](O)(c3cc4c(c(-c5ccc(F)c(Cl)c5)n3)OC[C@]4(C)C(N)=O)C(F)(F)F)cc2c1` [Example 253], the pEC50 is more than 6.70.

For `Cc1cnc2c(O)cc(C(=O)NC[C@](O)(c3cc4c(c(-c5ccc(F)cc5)n3)OC[C@]4(C)C(N)=O)C3CC3)cc2c1` [Example 254], the pEC50 is more than 6.70.

Turning to `COc1cc(C(=O)NC[C@](O)(c2cc3c(c(-c4ccc(F)c(Cl)c4)n2)OC[C@]3(C)C(N)=O)C2CC2)cc2cc(C)cnc12` [Example 258], the pEC50 is more than 6.70.

Turning to `COc1cc(C(=O)NC[C@](O)(c2cc3c(c(-c4ccc(C)cc4)n2)OC[C@]3(C)C(N)=O)C(F)(F)F)cc2cc(C)cnc12` [Example 259], the pEC50 is more than 6.70.

Consider `COc1cc(C(=O)NC[C@](O)(c2cc3c(c(-c4ccc(Cl)c(F)c4)n2)OC[C@]3(C)C(N)=O)C(F)(F)F)cc2cc(C)cnc12` [Example 260], for which the pEC50 is more than 6.70.

As to `CCc1cnc2c(O)cc(C(=O)NC[C@](O)(c3cc4c(c(-c5ccc(F)cc5)n3)OC[C@]4(C)C(N)=O)C(F)(F)F)cc2c1` [Example 261], the pEC50 was more than 6.70.

Turning to `Cc1cnc2c(OC3CC3)cc(C(=O)NC[C@](O)(c3cc4c(c(-c5ccc(F)cc5)n3)OC[C@]4(C)C(N)=O)C(F)(F)F)cc2c1` [Example 263], the pEC50 was more than 6.70.

As to `COc1cc(C(=O)NC[C@](C)(O)c2cc3c(c(-c4ccc(F)cc4)n2)OC[C@]3(C)C(N)=O)ccc1OC[C@@H](C)O` [Example 264], the pEC50 was more than 6.70.

For `C[C@@H](O)COc1ccc(C(=O)NC[C@](C)(O)c2cc3c(c(-c4ccc(F)cc4)n2)OC[C@]3(C)C(N)=O)cc1OC1CC1` [Example 267], the negative-log EC50 (pEC50) was more than 6.70.

Regarding `C[C@]1(C(N)=O)COc2c1cc([C@@](O)(CNC(=O)c1ccc3ccncc3c1)C(F)(F)F)nc2-c1ccc(F)cc1` [Example 268], the pEC50 was more than 6.70.

For the compound `CC(C)(O)COc1cc(C(=O)NC[C@](O)(c2cc3c(c(-c4ccc(F)cc4)n2)OC[C@]3(C)C(N)=O)C(F)(F)F)cc2cccnc12` [Example 270], the pEC50 was less than 6.70.

In the case of `CCc1ccc2cc(C(=O)NC[C@](O)(c3cc4c(c(-c5ccc(F)cc5)n3)OC[C@]4(C)C(N)=O)C(F)(F)F)cc(O)c2n1` [Example 272], the pEC50 was less than 6.70.

Consider `CCc1ccc2cc(C(=O)NC[C@](O)(c3cc4c(c(-c5ccc(F)cc5)n3)OC[C@]4(C)C(N)=O)C(F)(F)F)cc(OC)c2n1` [Example 273], for which the pEC50 was more than 6.70.

Take `C[C@]1(C(N)=O)COc2c1cc([C@@](O)(CNC(=O)c1cc(C#N)c3ncccc3c1)C(F)(F)F)nc2-c1ccc(F)cc1` [Example 274]: the pEC50 is more than 6.70.

With `CNC(=O)[C@@]1(C)COc2c1cc([C@@](O)(CNC(=O)c1cc(OCC(N)=O)c3ncccc3c1)C(F)(F)F)nc2-c1ccc(F)cc1` [Example 276], the pEC50 was more than 6.70.

`C[C@]1(C(N)=O)COc2c1cc([C@@](O)(CNC(=O)c1cc(OCCF)c3ncccc3c1)C(F)(F)F)nc2-c1ccc(F)cc1` [Example 277]: the negative logarithm of the EC50 (pEC50) was more than 6.70.

For `C[C@]1(C(N)=O)COc2c1cc([C@@](O)(CNC(=O)c1cc(OC(F)(F)F)c3ncccc3c1)C(F)(F)F)nc2-c1ccc(F)cc1` [Example 278], the pEC50 was more than 6.70.

As for `C[C@]1(C(N)=O)COc2c1cc([C@@](O)(CNC(=O)c1cc(N)c3ncccc3c1)C(F)(F)F)nc2-c1ccc(F)cc1` [Example 279], the pEC50 was more than 6.70.

In the case of `C[C@]1(C(N)=O)COc2c1cc([C@@](O)(CNC(=O)c1cc(OC3CC3)c3ncccc3c1)C(F)(F)F)nc2-c1ccc(Cl)c(F)c1` [Example 282], the pEC50 is more than 6.70.

For `Cc1ccc(-c2nc([C@@](O)(CNC(=O)c3cc(OC4CC4)c4ncccc4c3)C(F)(F)F)cc3c2OC[C@]3(C)C(N)=O)cc1` [Example 283], the negative logarithm of the EC50 (pEC50) is more than 6.70.

As to `CNC(=O)[C@@]1(C)COc2c1cc([C@@](O)(CNC(=O)c1cc(NC(N)=O)c3ncccc3c1)C(F)(F)F)nc2-c1ccc(F)cc1` [Example 284], the pEC50 was more than 6.70.

On to `C[C@]1(C(N)=O)COc2c1cc([C@@](O)(CNC(=O)c1cc(OCC(F)F)c3ncccc3c1)C(F)(F)F)nc2-c1ccc(F)cc1` [Example 285], for which the pEC50 is more than 6.70.

As for `CO[C@@H](C)COc1cc(C(=O)NC[C@](O)(c2cc3c(c(-c4ccc(F)cc4)n2)OC[C@]3(C)C(N)=O)C(F)(F)F)cc2cccnc12` [Example 286], the pEC50 is less than 6.70.

Take `C[C@]1(C(N)=O)COc2c1cc([C@@](O)(CNC(=O)c1ccc3nc[nH]c3c1)C(F)(F)F)nc2-c1ccc(F)cc1` [Example 291]: the pEC50 is more than 6.70.

As for `C[C@]1(C(N)=O)COc2c1cc([C@@](O)(CNC(=O)c1cc3cncnc3[nH]1)C(F)(F)F)nc2-c1ccc(F)cc1` [Example 292], the pEC50 was less than 6.70.

Take `C[C@]1(C(N)=O)COc2c1cc([C@@](O)(CNC(=O)c1n[nH]c3ccncc13)C(F)(F)F)nc2-c1ccc(F)cc1` [Example 293]: the negative-log EC50 (pEC50) was less than 6.70.

On to `C[C@]1(C(N)=O)COc2c1cc([C@@](O)(CNC(=O)c1ccc(F)c(OC3CC3)c1)C(F)(F)F)nc2-c1ccc(F)cc1` [Example 294], for which the pEC50 was more than 6.70.

In the case of `C[C@]1(C(N)=O)COc2c1cc([C@@](O)(CNC(=O)c1cc(C(N)=O)ccn1)C(F)(F)F)nc2-c1ccc(F)cc1` [Example 295], the pEC50 was less than 6.70.

As for `C[C@]1(C(N)=O)COc2c1cc([C@@](O)(CNC(=O)c1cncc(C(N)=O)c1)C(F)(F)F)nc2-c1ccc(F)cc1` [Example 296], the pEC50 is less than 6.70.
